Source: a melting point compilation (Tetko et al.; mined from patent text by program, amines drawn as free bases though some values may be those of a salt)

SMILES | melting point [°C]
COC(=O)c1cc(CCCc2coc3nc(N)nc(N)c23)cs1 | 156 to 157
CCOC(=O)c1ccc(OCc2csc3nc(C(=O)OCC)[nH]c(=O)c23)cc1 | 205 to 208
CC(C)(C)NC(=O)Nc1ccc([N+](=O)[O-])cc1O | 99 to 101
CCN(CC)CCNC(=O)c1cc(Cl)c(NC(=O)c2ccc3ccccc3c2)cc1OC | 173 to 174
O=C(OCC1OC(OC(=O)c2ccccc2)C(F)C1OC(=O)c1ccccc1)c1ccccc1 (configuration not stated) | 77 to 78
CN(C)CCC(O)c1ccc(Cl)s1 (configuration not stated) | 76 to 77
CC1(C)CCOc2c(C(O)C#Cc3ccc(C(=O)O)c(O)c3)cccc21 (configuration not stated) | 225 to 227
O=C(O)C(=O)Nc1coc2ccc(Cl)cc2c1=O | 213 to 215
NC(N)=Nc1nc(-c2csc(CNC(=O)CSCc3ccco3)n2)cs1 | 204
CC12CCC(=O)C=C1CCC1C2CCC2(C)C(CO)CCC12 (configuration not stated) | 151
CCOC(=O)C(Cc1ccc(C(F)(F)F)cc1)C(=O)c1ccc(Oc2ccccc2)cc1 (configuration not stated) | 67 to 68
OCc1c(F)cccc1-c1ccc2nc(-c3ccc(Cl)cc3)cn2c1 | 229 to 230
O=C(CCl)Nc1ccc2c(c1NC(=O)c1cc(C(F)(F)F)ccc1C(F)(F)F)C(=O)c1ccccc1C2=O | 187 to 188
CC(C)(C)c1cc(-c2nc(Cl)nc(Cl)n2)cc(C(C)(C)C)c1O | 178 to 179
C[C@]1(CN2CCCc3ccccc32)Cn2cc([N+](=O)[O-])nc2O1 | 168 to 172
COC(=O)c1nc2cccc(Br)c2c(O)c1C(=O)OC | 124 to 126
COc1ccc(C(OC2CCN(CC(=O)O)CC2)c2ccccc2)cc1 (configuration not stated) | 84 to 85
COc1ncnc(-c2cc([N+](=O)[O-])c(F)cc2F)c1C | 114 to 117
NC(=O)N(CC(=O)OCCCCCCOC(=O)CN(C(N)=O)c1ccccc1)c1ccccc1 | 131 to 140
COc1ccc(N2CCCn3c2nc2c(Cl)ccc(C(OCC(F)F)C4CC4)c23)c(C)n1 (configuration not stated) | 124 to 126
CCCCOC(=O)CNC(=O)c1ncc(C(=O)OCCCC)cc1OC | 80 to 81
CN(C)c1ccc2c(n1)C(c1ccccc1Cl)=NCc1nncn1-2 | 240 to 242
Cc1cnc2c(cc(C(N)=O)c3nncc32)c(-c2ccccc2F)n1 | 323 to 324
CCOC(=O)/C=C/c1c[nH]c(-c2cccs2)c1 | 104 to 105
C[C@]1(N2C(=O)c3cccc(OCc4ccc(CN5CCOCC5)cc4)c3C2=O)CCC(=O)NC1=O | 178 to 180

SMILES | melting point [°C]
Nc1cc(Cl)cc(NCCO)c1[N+](=O)[O-] | 183
O=C(NCc1cccc([N+](=O)[O-])c1)c1[nH]c2ccc(Cl)cc2c1S(=O)(=O)c1ccccc1 | 253 to 254
CC1C(C(N)=O)CC2CC1C2(C)C (single isomer, unassigned; (+)) | 131
CCc1ccc(Cl)c(CC)c1NS(=O)(=O)c1cc(S(=O)(=O)Nc2c(CC)ccc(Cl)c2CC)c2cc(O)ccc2c1 | 142 to 144
Cc1cc2c(cc1N(Cc1ccccc1)Cc1ccccc1)OC(=O)C2C (configuration not stated) | 122 to 123
CCCCN1C(=O)CSC(=NO)C1C (configuration not stated) | 118 to 120
COc1ccc2c(c1)C(CC#N)CN(C(=O)OC(C)(C)C)C2 (configuration not stated) | 75 to 77
Cn1nnnc1CC(=O)c1ccc(C(F)(F)F)cc1N | 200 to 201
CC(C(=O)Cl)c1ccc(C(=O)c2cccs2)cc1 (configuration not stated) | 149
NC(=O)c1nc(-c2cccc(O)c2)nc2c1[nH]c(=O)n2Cc1ccccc1 | 362 to 366
CSC[C@H](C)NC(=O)c1c(I)cccc1C(=O)Nc1ccc(Cc2cc(C(F)(F)F)cc(C(F)(F)F)c2)cc1C | 85 to 94
O=C(CCc1c(O)c2ccccc2oc1=O)c1ccccc1 | 149 to 151
CCOC(=O)C1=C(C)NC(COC(C)=O)=C(C(=O)OCC)C1c1ccccc1 (configuration not stated) | 104 to 106
COc1ccc(-c2nc(C(=O)c3ccc([N+](=O)[O-])c(OC)c3)n3ccccc23)cc1 | 185
Cc1oc(-c2ccc3ccccc3c2)nc1COc1ccc(/C=C/C=O)cc1 | 179 to 180
Cc1ccc(C(F)(F)F)cc1[N+](=O)[O-] | 31 to 33
C[C@H]1COS(=O)(=O)N1C(=O)OC(C)(C)C | 121 to 122
O=c1c2c(Cl)cc(Cl)cc2n(Cc2ccccc2)c(=O)n1Cc1cccc(Cl)c1 | 123 to 129
COC(=O)COc1ccc(OC)cc1C(=O)OC | 66 to 68.5
O=C(O)CCCCCc1nn(Cc2ccccc2)c2c1CCC2 | 94 to 95
CCOC(=O)C1=C(N)NC(N)=C(C(=O)OCC)C1c1cccc(C#N)c1 | 176
COc1ccc(C=CCN2CCc3nc(N)sc3CC2)c(OC)c1 | 95 to 100
CC1(C)CCC(C)(C)c2cc3cc(-c4c[nH]c(C(=O)O)c4)ccc3cc21 | 234 to 238
Cc1cc(C)c2cccc(Cl)c2n1 | 66 to 68
COc1ccc(-c2cncc(OC3SCC(OC(C)=O)C(OC(C)=O)C3OC(C)=O)c2)cn1 (configuration not stated) | 172

SMILES | melting point [°C]
CCCCCCCS(=O)(=O)Oc1c(I)cc(I)cc1I | 78 to 80
CCc1ccc(NC2=CC3=NCN(C)C3=CC2(F)C(=O)OC)c(F)c1 (configuration not stated) | 238
CSc1sc(C(=O)N2CCCCCC2)c2c1-c1oncc1C(C)(C)C2 | 99 to 101
COc1ccc(C2=NN(CC(=O)c3ccccc3)C(=O)[C@H]3CCCC[C@@H]23)cc1OC (relative stereo) | 133 to 135
CC(=O)SCC(Cc1ccccc1)C(=O)Nc1ccc(C(=O)O)cc1 (configuration not stated) | 187 to 189
CSc1nc(O)c(NC(=O)c2ccco2)c(O)n1 | 124 to 125
c1ccc(OCCSCc2nnc(-c3ccc(OCCCN4CCOCC4)cc3)o2)cc1 | 65
CC(C)(C)OC(=O)N1C(=O)O[C@@H](c2ccc(F)cc2)[C@H]1Cc1ccc(C(F)(F)F)cc1 (racemic) | 155 to 156
Fc1ccc(Cn2c(NC3CCN(CCc4cnccn4)CC3)nc3ccccc32)cc1 | 165
CC(C)(C)OC(=O)C1CSC(C2CC3CCC2C3)N1C(=O)CNC(=O)Nc1cccc(CC(=O)O)c1 (mixture of isomers) | 115
CCCc1c(OC(C(=O)OCC)c2ccc(OC)cc2)ccc(C(C)=O)c1O (configuration not stated) | 87 to 89
CCCCCS(=O)(=O)NC(=O)OCc1ccc(OC(C)C)cc1Oc1ncc(C(F)(F)F)cc1Cl | 70 to 73
Cc1oc(-c2ccccc2)nc1CCOc1ccc(C=O)cn1 | 99 to 100
CCCc1c(C(=O)CC(C)OC)c2ccc(C(N)=O)cc2n1Cc1ccccc1Cl (configuration not stated) | 155 to 157
CC(=C(C#N)C(=O)Nc1ccccc1C(C)C)N(C)C | 74 to 78
COCc1ccc2c(c1)ncn2-c1cccc(-c2ccccc2)c1 | 70 to 72
C=CCN1CCN(CCC(=O)N2c3ccccc3C(=O)Nc3cccnc32)CC1 | 205 to 207
C=CCOC(=O)c1ccc(-c2ccc3cc(C(=O)OCC)c(C45CC6CC(CC(C6)C4)C5)cc3c2OCCCCC)cc1 | 116 to 117
C#CC1(OC(=O)CC)C(COC(=O)c2ccc(Cl)cc2)OC(n2ccc(=O)[nH]c2=O)C1OC(=O)CC (configuration not stated) | 208 to 210
CCOCn1c(C(=O)c2cc(C)cc(C)c2)c(CC)c(=O)[nH]c1=O | 184
CN(C)C(=O)[C@@H]1C[C@H](C(=O)OC(C)(C)C)N[C@@H]1c1ccccc1 (racemic) | 97
ONc1ccc(Cl)cc1 | 83 to 84
CCCc1c(OCCCCCOc2cc(OCCCC(=O)OC)ccc2CCC(=O)OC)ccc2c1OCCC2=O | 58 to 59
CC(C)(C)OC(=O)NC(C)(C(=O)O)c1nc2ccccc2s1 (configuration not stated) | 148 to 150
COc1ccc(CN2CC(CO)CC2=O)cc1OC (configuration not stated) | 78 to 79

SMILES | melting point [°C]
CCCCCOc1c(OC)ccc(C(=O)NCCc2ccc(OCc3ccccc3)cc2)c1CCO | 93.4 to 93.7
CN1C(=O)N(C)P(C)(=S)C1=O (configuration not stated) | 95
Cc1ccc(C2=CCN(CCCn3c(=O)[nH]c4cccc(C)c4c3=O)CC2)cc1 | 165 to 170
Cc1ccc([N+](=O)[O-])cc1CNC(=O)c1ccccc1 | 134 to 137
O=C(Cl)c1cscc1S(=O)(=O)Cl | 78 to 79
N#CNc1ncc(-c2ccncc2)cn1 | > 300
CN1CCSC1=C[N+](=O)[O-] | 169 to 171
O=C(NCCc1ccccc1)[C@@H]1Cc2ccccc2N1 | 112 to 116
COC(=O)c1cccc(-c2nnc(-c3ccc(-c4cccc(C)c4)cc3)o2)c1 | 147 to 148
CC(C)(N)Cc1ccc(NS(=O)(=O)c2ccccc2)cc1 | 180 to 181
CC(=O)OC1CSC(Oc2cccc(-c3ccnc(F)c3)c2)C(OC(C)=O)C1OC(C)=O (configuration not stated) | 117
CCOC(=O)NN(C)c1ccc(-c2ccc(F)cc2)nn1 | 160 to 161
C=CC(=O)OCCNC(=O)C(C)ON(C(C(C)(C)C)P(=O)(OCC)OCC)C(C)(C)C (configuration not stated) | 95 to 98
COc1ccc(N(C(=O)CN2C(=O)C(Cc3n[nH]c4ccccc34)C(=O)N(c3cccnc3)c3ccccc32)C(C)C)cc1 (single isomer, unassigned; (+)) | 214 to 215
Brc1ccc(C2NCCS2)cc1 (configuration not stated) | 105 to 107
CCN(CC)CCn1nc2c3c(c(N)ccc31)Oc1ccccc1-2 | 78 to 80
O=C(O)[C@H](CO)NC(=O)[C@@H]1CS[C@H](c2ccccc2O)N1C(=O)CCS | 140 to 145
C=CCOc1cc(C(O)CS(C)(=O)=O)cc(OCC=C)c1NC(C)=O (configuration not stated) | 162
CC1(C)CC(=O)SC(=NCCCCN2CCN(c3ncccn3)CC2)N1 | 148
COc1ccc(N2CCN(c3ccc(NC(=O)Oc4ccccc4)cc3)CC2)cc1 | 204
CC(C)S(=O)(=O)C1C(=O)N(Cc2ccccc2F)C(=O)c2ccccc21 (configuration not stated) | 174 to 181
CC(C)Cc1cc(C(=O)N2CCN(CC(C)C)CC2)ccc1OCc1ccc(F)cc1 | 77 to 78
